Assays:
[1] = system: hypothalamic cells of the apoaequorin-expressing mice; test: Intracellular calcium ion increase (aequorin luminescence), hypothalamus; assay type: cell-based, mouse; settings: for increase of intracellular calcium concentration in hypothalamic cells (RLU per second): 5 μmol/L peptide, added at 25 seconds; for luminescence (intracellular calcium ion increase) in hypothalamus: peptide at final concentrations of 1 μmol/L and 5 μmol/L
Method: (§1) A hypothalamus, pituitary gland, kidney, heart, blood vessel, or a portion of brain tissue is collected from transgenic mice systemically expressing apoaequorin (WO02/010371) produced by introducing an apoaequorin gene expression vector into fertilized eggs. The obtained hypothalamus, pituitary gland, kidney, heart, blood vessel, or brain tissue is cut finely into pieces, suspended in a medium containing coelenterazine, and then incubated to incorporate coelenterazine into the cells to form aequorin (a complex of apoaequorin and coelenterazine). Since aequorin luminesces upon binding to intracellular calcium ions, the relative luminescence level in cells before and after addition of a medium containing the peptide or a pharmaceutically acceptable salt thereof is measured in a luminometer every second over time and is used as an indicator of intracellular calcium ion concentration. Increase in the relative luminescence level due to addition of the peptide or pharmaceutically acceptable salt thereof confirms that the peptide or pharmaceutically acceptable salt thereof has the activity to increase intracellular calcium ion concentration.
(§2) Whether Peptides 1 to 8 synthesized in Example 2 have the activity of increasing intracellular calcium ion concentration was investigated using the organs of transgenic mice introduced with the apoaequorin gene and systemically expressing apoaequorin (hereinafter referred to as apoaequorin-expressing mice). In apoaequorin-expressing mouse cells, light is emitted when apoaequorin binds to a calcium ion in the presence of the luminescent substrate coelenterazine and thus the intracellular calcium ion concentration can be monitored. Patent Document (WO02/010371) discloses the method for producing apoaequorin-expressing mice, method for evaluating biologically active substances that use biological samples derived from the mice, and experimental results of evaluating biologically active peptides using the mouse organs as shown below. […] Therefore, apoaequorin-expressing mice can be used in the evaluation of the physiological activities of novel peptides.
(§3) Apoaequorin-expressing mice were produced according to the method disclosed in Reference Example 4 of Patent Document (WO02/010371). The apoaequorin-expressing mice were sacrificed, individual organs including thymus, hypothalamus, spleen, bone, aorta, heart, kidney, adrenal gland, pancreas, pituitary gland, uterus, medulla oblongata, and spinal cord were removed; and each of the organs was cut into small cubes of approximately 1 to 2 mm^3. Next, in 5-mL tubes (Rohren-Tubes; manufactured by Sarstedt, No. 55.476), three portions of each of the prepared organs were added to 50 μL of a 10 μmol/L solution of coelenterazine (manufactured by Molecular Probes) dissolved in RPMI 1640 medium, and these were cultured at 37° C. for three hours. After culturing, RPMI 1640 medium was added, and then Peptides 1 to 5 dissolved in RPMI 1640 medium were added 25 seconds after the addition of RPMI 1640 until each peptide had final concentrations of 1 μmol/L and of 5 μmol/L, and the relative luminescence levels were measured every second immediately after the addition of RPMI 1640 medium by using a luminometer (AutoLumat LB953, manufactured by Berthold).

[2] = system: pituitary cells of the apoaequorin-expressing mice; test: Intracellular calcium ion increase (aequorin luminescence), pituitary gland; assay type: cell-based, mouse; settings: for increase of intracellular calcium concentration in pituitary cells (RLU per second): added at 25 seconds; for luminescence (intracellular calcium ion increase) in pituitary gland: peptide at final concentrations of 1 μmol/L and 5 μmol/L
Method: as §1, §2, §3

[3] = system: medulla oblongata of apoaequorin-expressing mice; test: Intracellular calcium ion increase (aequorin luminescence), medulla oblongata; assay type: cell-based, mouse; settings: peptide at final concentrations of 1 μmol/L and 5 μmol/L
Method: as §1, §2, §3

[4] = system: cardiac cells of the apoaequorin-expressing mice; test: Intracellular calcium ion increase (aequorin luminescence), heart; assay type: cell-based, mouse; settings: for increase of intracellular calcium concentration in cardiac cells (RLU per second): 5 μmol/L peptide, added at 25 seconds; for luminescence (intracellular calcium ion increase) in heart: peptide at final concentrations of 1 μmol/L and 5 μmol/L
Method: as §1, §2, §3

[5] = system: kidney cells of the apoaequorin-expressing mice; test: Intracellular calcium ion increase (aequorin luminescence), kidney; assay type: cell-based, mouse; settings: for increase of intracellular calcium concentration in kidney cells (RLU per second): 1 μmol/L peptide, added at 25 seconds; for luminescence (intracellular calcium ion increase) in kidney: peptide at final concentrations of 1 μmol/L and 5 μmol/L
Method: as §1, §2, §3

[6] = system: spleen of apoaequorin-expressing mice; test: Intracellular calcium ion increase (aequorin luminescence), spleen; assay type: cell-based, mouse; settings: peptide at final concentrations of 1 μmol/L and 5 μmol/L
Method: as §1, §2
(§4) Apoaequorin-expressing mice were produced according to the method disclosed in Reference Example 4 of Patent Document (WO02/010371). […] After culturing, RPMI 1640 medium was added, and then Peptides 1 to 5 dissolved in RPMI 1640 medium were added 25 seconds after the addition of RPMI 1640 until each peptide had final concentrations of 1 μmol/L and of 5 μmol/L, and the relative luminescence levels were measured every second immediately after the addition of RPMI 1640 medium by using a luminometer (AutoLumat LB953, manufactured by Berthold).

[7] = system: uterus of apoaequorin-expressing mice; test: Intracellular calcium ion increase (aequorin luminescence), uterus; assay type: cell-based, mouse; settings: peptide at final concentrations of 1 μmol/L and 5 μmol/L
Method: (§5) A hypothalamus, pituitary gland, kidney, heart, blood vessel, or a portion of brain tissue is collected from transgenic mice systemically expressing apoaequorin (WO02/010371) produced by introducing an apoaequorin gene expression vector into fertilized eggs. The obtained hypothalamus, pituitary gland, kidney, heart, blood vessel, or brain tissue is cut finely into pieces, suspended in a medium containing coelenterazine, and then incubated to incorporate coelenterazine into the cells to form aequorin (a complex of apoaequorin and coelenterazine). Since aequorin luminesces upon binding to intracellular calcium ions, the relative luminescence level in cells before and after addition of a medium containing the peptide or a pharmaceutically acceptable salt thereof is measured in a luminometer every second over time and is used as an indicator of intracellular calcium ion concentration. Increase in the relative luminescence level due to addition of the peptide or pharmaceutically acceptable salt thereof confirms that the peptide or pharmaceutically acceptable salt thereof has the activity to increase intracellular calcium ion concentration. […]

[8] = system: spinal cord of apoaequorin-expressing mice; test: Intracellular calcium ion increase (aequorin luminescence), spinal cord; assay type: cell-based, mouse; settings: peptide at final concentrations of 1 μmol/L and 5 μmol/L
Method: as §5

[9] = system: thymus of apoaequorin-expressing mice; test: Intracellular calcium ion increase (aequorin luminescence), thymus; assay type: cell-based, mouse; settings: peptide at final concentrations of 1 μmol/L and 5 μmol/L
Method: as §1, §2, §4

[10] = system: aortic cells of the apoaequorin-expressing mice; test: Intracellular calcium ion increase (aequorin luminescence), aorta; assay type: cell-based, mouse
Method: as §1, §2, §4

[11] = system: antiserum against ESPGPERVW peptide of human VGF; assay type: binding; settings: 1, 10, and 100 pmol of the peptides
Method: Namely, to 100 μL of antiserum diluted 9×10^5 folds with RIA buffer, 100 μL of RIA buffer containing a fixed amount of [^125I]-labeled Peptide 1 (approximately 20000 cpm, 500-550 Bq, approximately 9 fmol in terms of peptide amount) and 100 μL of RIA buffer solutions each containing a sequentially diluted VGF-derived peptide were added, this was incubated at 4° C. for 40 hours, and the labeled Peptide 1 and VGF-derived peptide were competitively bound to the antibody in the antiserum. As controls, reactions that use RIA buffer instead of the antiserum to measure non-specific binding, and reactions that use RIA buffer instead of VGF-derived peptide solutions to measure the maximum binding level were carried out. Reactions for non-specific binding were performed in quadruplicates, and the other reactions were performed in duplicates, and for each of the reactants, the immune complex was precipitated as in the above-mentioned antibody titer measurements, and its radioactivity (cpm) was measured. The average radioactivity of non-specific binding reaction is defined as non-specific binding level N, the radioactivity value for each VGF-derived peptide addition reaction is defined as Y, and the radioactivity value of maximum binding reaction is defined as Z. The percentage ratio (B/B0) of antiserum specific binding level (B) with peptide addition to the maximum binding level (B0), was determined using the following formula.
B/B0(%)={(Y−N)/(Z−N)}×100
Accordingly, the amount of peptide that achieves 50% B/B0, more specifically, the amount of peptide that yields 50% inhibition of the maximum binding level, was used as an indicator of the peptide binding activity to the antiserum.

[12] = system: uterus of apoaequorin-expressing mice; settings: final concentration of 1 μmol/L; reported in WO02/010371; cited from earlier work
[13] = system: blood vessels of apoaequorin-expressing mice; settings: final concentration of 1 μmol/L; reported in WO02/010371; cited from earlier work
[14] = system: adrenal glands of apoaequorin-expressing mice; settings: final concentration of 1 μmol/L; reported in WO02/010371; cited from earlier work
[15] = system: rats fed with high-calorie diets; settings: administered into the rat ventricle, Non-patent Document 6; cited from earlier work
[16] = system: male rats; settings: direct administration to the PVN of male rats; Non-patent Document 7; cited from earlier work

Substance	increase of intracellular calcium concentration in hypothalamic cells (RLU per second) [1]	luminescence (intracellular calcium ion increase) in hypothalamus [1]	increase of intracellular calcium concentration in pituitary cells (RLU per second) ([2]; 5 μmol/L peptide)	luminescence (intracellular calcium ion increase) in pituitary gland [2]	luminescence (intracellular calcium ion increase) in medulla oblongata [3]	increase of intracellular calcium concentration in cardiac cells (RLU per second) [4]	luminescence (intracellular calcium ion increase) in heart [4]	increase of intracellular calcium concentration in kidney cells (RLU per second) [5]	luminescence (intracellular calcium ion increase) in kidney [5]	luminescence (intracellular calcium ion increase) in spleen [6]	luminescence (intracellular calcium ion increase) in uterus [7]	luminescence (intracellular calcium ion increase) in spinal cord [8]	luminescence (intracellular calcium ion increase) in thymus [9]	other results
Peptide 5: amino acid sequence at position 211 to 236 in rat VGF (ASWGEFQARVPERAPLPPSVPSQFQA; synthetic Peptide 5, VGF-related peptide, rat VGF positions 211-236)	increase of intracellular calcium concentration	luminescence was observed	increase of intracellular calcium concentration	luminescence was observed	luminescence was observed	increase of intracellular calcium concentration	luminescence was observed	increase of intracellular calcium concentration	luminescence was observed	luminescence was observed	luminescence was observed	luminescence was observed	–	–
Peptide 6: amino acid sequence at position 353 to 372 in rat VGF (GLQETQQERENEREEEAEQE; synthetic Peptide 6, VGF-related peptide, rat VGF positions 353-372)	increase of intracellular calcium concentration	luminescence was observed	increase of intracellular calcium concentration	luminescence was observed	luminescence was observed	–	luminescence was observed	increase of intracellular calcium concentration	luminescence was observed	luminescence was observed	luminescence was observed	–	luminescence was observed	increase of intracellular calcium concentration in aortic cells (RLU per second) ([10]; 1 μmol/L peptide, added at 25 seconds): increase of intracellular calcium concentration; luminescence (intracellular calcium ion increase) in aorta ([10]; peptide at final concentrations of 1 μmol/L and 5 μmol/L): luminescence was observed
Peptide 8: amino acid sequence at position 423 to 430 in rat VGF (SQEEAPGH; synthetic Peptide 8, VGF-related peptide, rat VGF positions 423-430)	–	–	–	luminescence was observed	luminescence was observed	increase of intracellular calcium concentration	luminescence was observed	–	–	luminescence was observed	–	luminescence was observed	luminescence was observed	increase of intracellular calcium concentration in pituitary cells (RLU per second) ([2]; 1 μmol/L peptide): increase of intracellular calcium concentration
angiotensin II (DRVYIHPF) [non-VGF peptide]	–	–	–	–	–	–	–	–	–	–	–	–	–	inhibition of binding of the antiserum to labeled peptide [11]: none of these peptides showed inhibition; luminescence in uterus [12]: strong luminescence was observed; luminescence in blood vessels [13]: strong luminescence was observed; luminescence in adrenal glands [14]: strong luminescence was observed
rat VGF (556-576): known peptide, positions 556-576 of the rat VGF amino acid sequence	–	–	–	–	–	–	–	–	–	–	–	–	–	suppression of weight gain [15]: activity of suppressing weight gain; erection inducing activity [16]: this activity was not observed

— patent publication US20100075343A1, “NOVEL PEPTIDES” (priority 2007, published 2010)
